Three compounds from patent US10670605B2, “Cysteine reactive probes and uses thereof” (The Scripps Research Institute, priority 2015, dated 2020) can be followed below.

For one experiment, the target named is T1, pro-CASP8 (Homo sapiens, UniProt Q14790, D374A/D384A).
T1 construct: a truncated CASP8 (residues 217-479) without the CARD domain; His6 (C); made in house; host or cells: E. coli BL21(DE3)pLysS
Kind of experiment: Click probe 61 labeling of pro-CASP8 and its competition. In kind it is binding. As to conditions: 300 nM protein in MDA-MB-231 lysate; read-out: apparent IC50 for blockade of 61 labeling of pro-CASP8.

In the next experiment the target is pro-CASP10 (Homo sapiens, UniProt Q92851). Nature of the experiment: Blockade of probe 61 labeling of pro-CASP10. As to conditions: 300 nM protein in MDA-MB-231 lysate; read-out: apparent IC50 for blockade of 61 labeling of pro-CASP10. In kind it is binding.
Sequence of pro-CASP10 (Q92851 220-521): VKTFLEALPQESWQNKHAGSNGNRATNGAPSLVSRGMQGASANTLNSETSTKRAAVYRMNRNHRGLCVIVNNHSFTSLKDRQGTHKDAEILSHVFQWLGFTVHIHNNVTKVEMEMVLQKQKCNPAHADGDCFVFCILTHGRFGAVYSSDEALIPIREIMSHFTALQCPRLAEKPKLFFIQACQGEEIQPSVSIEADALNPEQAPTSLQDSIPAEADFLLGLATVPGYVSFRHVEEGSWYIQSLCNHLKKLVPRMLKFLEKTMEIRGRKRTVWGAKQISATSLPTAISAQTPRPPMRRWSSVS
Experiment [1] concerns Jurkat cells. Nature of the experiment: FasL-induced (extrinsic) apoptosis, CellTiter-Glo viability. In kind it is cell-based, human. For orientation: In ATP-based viability assays light output follows the ATP content of the culture.
A further experiment relates to primary human T cells. Nature of the experiment: FasL-induced apoptosis in activated primary T cells. Type of experiment: cell-based. As to conditions: anti-CD3, anti-CD28-activated primary human T cells.
Another experiment addresses T2, CASP8 (Homo sapiens, UniProt Q14790).
T2 construct: caspases measured by quantitative proteomics in Jurkat cells treated with 7, 63-R, or 62 followed by probe 61; endogenous in cells; host or cells: Jurkat cells (SILAC), treated in situ
Nature of the experiment: Quantitative proteomics (ABPP-SILAC) with probe 61 in cells. The following applies: primary human T cells and Jurkat cells. Type of experiment: cell-based.

The target of a further experiment is T3, active CASP10 (Homo sapiens, UniProt Q92851).
T3 sequence (Q92851 220-415 limits assumed): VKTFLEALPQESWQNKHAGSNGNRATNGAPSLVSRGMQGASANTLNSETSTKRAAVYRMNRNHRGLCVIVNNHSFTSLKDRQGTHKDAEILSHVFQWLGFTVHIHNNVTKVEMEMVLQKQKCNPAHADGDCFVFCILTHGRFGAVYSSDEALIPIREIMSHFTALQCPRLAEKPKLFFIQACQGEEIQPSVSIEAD
T3 sequence (Q92851 416-521 limits assumed): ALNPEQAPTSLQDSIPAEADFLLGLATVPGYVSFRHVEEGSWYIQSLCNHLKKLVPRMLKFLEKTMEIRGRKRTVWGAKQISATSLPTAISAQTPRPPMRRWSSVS
Kind of experiment: Active CASP10 activity assay (AEVD-AMC substrate). Type of experiment: biochemical. The following applies: fragments 25 μM; DEVD-CHO 20 μM.

Experiment [2] addresses T4, active CASP8 (Homo sapiens, UniProt Q14790). Kind of experiment: Rho-DEVD-AOMK probe labeling of active CASP8. The following applies: 7 50 μM; Ac-DEVD-CHO 20 μM.
Experiment [3] addresses T4, active CASP8. Nature of the experiment: CASP8 in vitro activity assay (substrate). Type of experiment: biochemical. The arrangement: recombinant, purified active-CASP8 and active-CASP3 added to MDA-MB-231 cell lysates; His6 (C); made in house; host or cells: E. coli BL21(DE3)pLysS. As to conditions: fragments 100 μM; DEVD-CHO 20 μM. The procedure:
Caspase 3 and 8 assays were conducted with CASP8 activity assay kit (BioVision, K112-100) and Caspase 3 activity assay kit (Invitrogen, EnzChek® Caspase-3 Assay Kit), following the manufacturer's instructions. Briefly, recombinant Caspase 3 (10 μM) was added to soluble Ramos lysates (1 mg/mL) to a 100 nM final concentration of protease. Caspase 8 (30 μM) was added to soluble Ramos lysates to a 1 μM final concentration of protease. In triplicate, 50 μL lysate was treated with either DMSO, DEVD-CHO (“DEVD” disclosed as SEQ ID NO: 857) (20 μM) or the indicated compounds (100 μM) for 1 h, following which 50 μL of 2× reaction buffer containing 10 mM DTT and 5 μL substrate (4 mM stock in DMSO of IETD-AFC (“IETD” disclosed as SEQ ID NO: 858) for CASP8; 10 mM stock in DMSO of DEVD-AMC (“DEVD” disclosed as SEQ ID NO: 857) for CASP3) was added to each well and the samples were incubated at ambient temperature for 2 h. Caspase activity was measured from the increase in fluorescence (excitation 380 nm emission 460 nm). Experiments were performed in triplicate. Background was calculated from samples lacking the recombinant caspase.

For experiment [4], the system named is Jurkat cells. Kind of experiment: Staurosporine-induced (intrinsic) apoptosis, CellTiter-Glo viability. Type of experiment: cell-based, human. The following applies: 30 μM (VAD-FMK 100 μM), 30 min before STS, 6 h. The procedure: 4 mL of Jurkat cells in RPMI (1.5 million cells/mL) were treated with the indicated compound at 30 μM for 30 min (50 mM stock solution in DMSO). Z-VAD-FMK (EMD Millipore Biosciences, 627610) and was used at a final concentration of 100 μM. After pre-incubation, FASL (4 μL of […] stock solution of SuperFasLigandm in water, final concentration=100 ng/mL, Enzo life Sciences) or staurosporine (8 μL of 1 mM stock solution in DMSO, final concentration=2 μM, Fisher Scientific, 50664333). […] The gels were transferred to nitrocellulose membranes and were immunoblotted overnight with the indicated antibodies. For measurements of cell viability, in quadruplicate for each condition, 150,000 cells (100 μL of 1.5 million cells/mL) were plated in Nunc™ MicroWell™ 96-Well Optical-Bottom Plates with Polymer Base (Fisher Scientific). Compounds, FASL and STS were used at the same concentrations indicated above with a 30 minute pre-incubation with compound, followed by 6 hours with either STS or FASL or DMSO. Cell viability was measured with CellTiter-Glo® Luminescent Cell Viability Assay (Promega) and was read on a Biotech Synergy 4 plate reader.

*: point of attachment. Cbz = O=C(OCc1ccccc1)*; CH2F = FC*

T4 sequence (Q14790 217-374 limits assumed): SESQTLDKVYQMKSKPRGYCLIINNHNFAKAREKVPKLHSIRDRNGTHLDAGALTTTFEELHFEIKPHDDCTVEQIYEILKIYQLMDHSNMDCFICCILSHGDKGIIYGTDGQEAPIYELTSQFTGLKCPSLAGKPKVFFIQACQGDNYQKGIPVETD
T4 sequence (Q14790 385-479 limits assumed): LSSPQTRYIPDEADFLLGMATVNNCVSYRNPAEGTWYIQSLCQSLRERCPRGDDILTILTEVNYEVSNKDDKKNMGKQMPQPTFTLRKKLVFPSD
T1 sequence (Q14790 217-479 D374A/D384A): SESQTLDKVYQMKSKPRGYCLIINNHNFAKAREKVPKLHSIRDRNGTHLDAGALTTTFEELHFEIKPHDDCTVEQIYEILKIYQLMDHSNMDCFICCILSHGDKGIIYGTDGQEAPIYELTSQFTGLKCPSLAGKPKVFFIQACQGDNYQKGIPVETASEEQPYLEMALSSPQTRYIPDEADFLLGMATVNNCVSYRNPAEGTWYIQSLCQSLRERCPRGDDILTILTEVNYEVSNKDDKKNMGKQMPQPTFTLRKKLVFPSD
T2 sequence (Q14790 217-479): as the sequence (Q14790 217-479 D374A/D384A) above, with A158D, A168D counted along it

Turning to `O=C(c1ccc(N2CCOCC2)cc1)N1CCC[C@@H](N(C(=O)CCl)c2ccccc2)C1` [63-R], the IC50 on pro-CASP8 was 700 nM; on pro-CASP10, > 100000 nM. Besides, the FasL-induced apoptosis entry was “fully blocked” in the experiment with Jurkat cells [1] (Jurkat cells, concentration series, 4 h) and “substantial resistance” with primary human T cells. Also, the “blockade of CASP8 (chemical proteomics with probe 61)” value at CASP8 was “inhibited”.
For the compound Ac-DEVD-CHO [reference compound], in the experiment with active CASP10, the “activity of active CASP10 (substrate assay)” value is “inhibited”. Besides, the “Rho-DEVD-AOMK labeling of active CASP8” value with active CASP8 [2] is given as “blocked”. In addition, the “CASP8 activity (substrate assay)” value with active CASP8 [3] is reported as “blocked”.
Regarding “Cbz-Val-Ala-Asp-CH2F [reference compound]”, the FasL-induced apoptosis result in the experiment with Jurkat cells [1] (30 μM (VAD-FMK 100 μM), 30 min before FASL, 6 h) is recorded as “prevented”. Besides, the STS-induced intrinsic apoptosis result in the experiment with Jurkat cells [4] is given as “prevented”.

For orientation: IC50 means the point on the concentration scale where inhibition reaches its midpoint.
